{"source": "the supplement of paper PMC10307832", "experiment_in_all_cases": "relative viability (nuclei count vs DMSO), 5 days (fraction); higher = more cells survive", "key": {"NCI-H1437": {"test_system": "NCI-H1437", "procedure,_shortened": "(§1)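 Nuclei were stained with Hoechst during a one-step fixation (final 0.05% Triton X-100, 1% formaldehyde, 1 ug/ml Hoechst) carried out 5 days after dosing, then counted on 4× images. The cells, lung cancer lines in 1536-well plates, had been dosed by pin tool the day after seeding with one drug alone or a fixed anchor-drug dose plus five library-drug doses (not always all listed) in √10 steps. Relative viability is the nuclei count in treated wells divided by that in vehicle wells, and each value is the median of duplicate plates.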"}, "NCI-H23": {"test_system": "NCI-H23", "procedure,_shortened": "as §1"}, "HCC-366": {"test_system": "HCC-366", "procedure,_shortened": "as §1"}, "SW 1573": {"test_system": "SW 1573", "procedure,_shortened": "as §1"}, "NCI-H727": {"test_system": "NCI-H727", "procedure,_shortened": "as §1"}, "NCI-H460": {"test_system": "NCI-H460", "procedure,_shortened": "as §1"}, "HCC-827": {"test_system": "HCC-827", "procedure,_shortened": "as §1"}, "CAL-12T": {"test_system": "CAL-12T", "procedure,_shortened": "as §1"}, "LCLC-103H": {"test_system": "LCLC-103H", "procedure,_shortened": "as §1"}, "HOP-62": {"test_system": "HOP-62", "procedure,_shortened": "as §1"}, "SK-LU-1": {"test_system": "SK-LU-1", "procedure,_shortened": "as §1"}, "NCI-H1395": {"test_system": "NCI-H1395", "procedure,_shortened": "as §1"}, "EMC-BAC-2": {"test_system": "EMC-BAC-2", "procedure,_shortened": "as §1"}, "COR-L 105": {"test_system": "COR-L 105", "procedure,_shortened": "as §1"}, "NCI-H1915": {"test_system": "NCI-H1915", "procedure,_shortened": "as §1"}, "HARA": {"test_system": "HARA", "procedure,_shortened": "as §1"}, "NCI-H2228": {"test_system": "NCI-H2228", "procedure,_shortened": "as §1"}, "NCI-H2009": {"test_system": "NCI-H2009", "procedure,_shortened": "as §1"}, "NCI-H1755": {"test_system": "NCI-H1755", "procedure,_shortened": "as §1"}, "A-427": {"test_system": "A-427", "procedure,_shortened": "as §1"}}}
{"smiles": "COc1cc2nccc(Oc3ccc(NC(=O)Nc4cc(C)on4)c(Cl)c3)c2cc1OC", "note": "[Tivozanib] + COc1cc2c(Oc3ccc(NC(=O)C4(C(=O)Nc5ccc(F)cc5)CC4)cc3F)ccnc2cc1OCCCN1CCOCC1 [Foretinib] (partner 0.25 µM)", "values": [{"measurement": "relative viability", "setting": "NCI-H1437; first compound 0.005 µM", "value": 1.1}, {"measurement": "relative viability", "setting": "NCI-H1437; first compound 0.01581 µM", "value": 1.22}, {"measurement": "relative viability", "setting": "NCI-H1437; first compound 0.05 µM", "value": 1.18}, {"measurement": "relative viability", "setting": "NCI-H1437; first compound 0.1581 µM", "value": 1.24}, {"measurement": "relative viability", "setting": "NCI-H1437; first compound 0.5 µM", "value": 1.25}, {"measurement": "relative viability", "setting": "NCI-H23; first compound 0.005 µM", "value": 0.907}, {"measurement": "relative viability", "setting": "NCI-H23; first compound 0.01581 µM", "value": 1.04}, {"measurement": "relative viability", "setting": "NCI-H23; first compound 0.05 µM", "value": 1.04}, {"measurement": "relative viability", "setting": "NCI-H23; first compound 0.1581 µM", "value": 0.942}, {"measurement": "relative viability", "setting": "NCI-H23; first compound 0.5 µM", "value": 1.1}, {"measurement": "relative viability", "setting": "HCC-366; first compound 0.005 µM", "value": 0.934}, {"measurement": "relative viability", "setting": "HCC-366; first compound 0.01581 µM", "value": 0.932}, {"measurement": "relative viability", "setting": "HCC-366; first compound 0.05 µM", "value": 0.9}, {"measurement": "relative viability", "setting": "HCC-366; first compound 0.1581 µM", "value": 0.969}, {"measurement": "relative viability", "setting": "HCC-366; first compound 0.5 µM", "value": 0.861}, {"measurement": "relative viability", "setting": "SW 1573; first compound 0.005 µM", "value": 0.784}, {"measurement": "relative viability", "setting": "SW 1573; first compound 0.01581 µM", "value": 0.828}, {"measurement": "relative viability", "setting": "SW 1573; first compound 0.05 µM", "value": 0.827}, {"measurement": "relative viability", "setting": "SW 1573; first compound 0.1581 µM", "value": 0.886}, {"measurement": "relative viability", "setting": "SW 1573; first compound 0.5 µM", "value": 0.903}, {"measurement": "relative viability", "setting": "NCI-H727; first compound 0.005 µM", "value": 0.963}, {"measurement": "relative viability", "setting": "NCI-H727; first compound 0.01581 µM", "value": 1.04}, {"measurement": "relative viability", "setting": "NCI-H727; first compound 0.05 µM", "value": 1.32}, {"measurement": "relative viability", "setting": "NCI-H727; first compound 0.1581 µM", "value": 0.853}, {"measurement": "relative viability", "setting": "NCI-H727; first compound 0.5 µM", "value": 0.89}, {"measurement": "relative viability", "setting": "NCI-H460; first compound 0.005 µM", "value": 0.983}, {"measurement": "relative viability", "setting": "NCI-H460; first compound 0.01581 µM", "value": 0.948}, {"measurement": "relative viability", "setting": "NCI-H460; first compound 0.05 µM", "value": 0.972}, {"measurement": "relative viability", "setting": "NCI-H460; first compound 0.1581 µM", "value": 1.01}, {"measurement": "relative viability", "setting": "NCI-H460; first compound 0.5 µM", "value": 0.96}, {"measurement": "relative viability", "setting": "HCC-827; first compound 0.005 µM", "value": 0.994}, {"measurement": "relative viability", "setting": "HCC-827; first compound 0.01581 µM", "value": 1.09}, {"measurement": "relative viability", "setting": "HCC-827; first compound 0.05 µM", "value": 1.02}, {"measurement": "relative viability", "setting": "HCC-827; first compound 0.1581 µM", "value": 1.09}, {"measurement": "relative viability", "setting": "HCC-827; first compound 0.5 µM", "value": 1.01}, {"measurement": "relative viability", "setting": "CAL-12T; first compound 0.005 µM", "value": 1.07}, {"measurement": "relative viability", "setting": "CAL-12T; first compound 0.01581 µM", "value": 0.998}, {"measurement": "relative viability", "setting": "CAL-12T; first compound 0.05 µM", "value": 1.11}, {"measurement": "relative viability", "setting": "CAL-12T; first compound 0.1581 µM", "value": 1.24}, {"measurement": "relative viability", "setting": "CAL-12T; first compound 0.5 µM", "value": 0.916}, {"measurement": "relative viability", "setting": "LCLC-103H; first compound 0.005 µM", "value": 0.905}, {"measurement": "relative viability", "setting": "LCLC-103H; first compound 0.01581 µM", "value": 0.809}, {"measurement": "relative viability", "setting": "LCLC-103H; first compound 0.05 µM", "value": 0.686}, {"measurement": "relative viability", "setting": "LCLC-103H; first compound 0.1581 µM", "value": 0.849}, {"measurement": "relative viability", "setting": "LCLC-103H; first compound 0.5 µM", "value": 0.881}, {"measurement": "relative viability", "setting": "HOP-62; first compound 0.005 µM", "value": 1.18}, {"measurement": "relative viability", "setting": "HOP-62; first compound 0.01581 µM", "value": 1.05}, {"measurement": "relative viability", "setting": "HOP-62; first compound 0.05 µM", "value": 1.12}, {"measurement": "relative viability", "setting": "HOP-62; first compound 0.1581 µM", "value": 1.11}, {"measurement": "relative viability", "setting": "HOP-62; first compound 0.5 µM", "value": 1.06}, {"measurement": "relative viability", "setting": "SK-LU-1; first compound 0.005 µM", "value": 0.794}, {"measurement": "relative viability", "setting": "SK-LU-1; first compound 0.01581 µM", "value": 0.863}, {"measurement": "relative viability", "setting": "SK-LU-1; first compound 0.05 µM", "value": 0.885}, {"measurement": "relative viability", "setting": "SK-LU-1; first compound 0.1581 µM", "value": 0.762}, {"measurement": "relative viability", "setting": "SK-LU-1; first compound 0.5 µM", "value": 0.829}, {"measurement": "relative viability", "setting": "NCI-H1395; first compound 0.005 µM", "value": 1.04}, {"measurement": "relative viability", "setting": "NCI-H1395; first compound 0.01581 µM", "value": 1.01}, {"measurement": "relative viability", "setting": "NCI-H1395; first compound 0.05 µM", "value": 1.11}, {"measurement": "relative viability", "setting": "NCI-H1395; first compound 0.1581 µM", "value": 0.897}, {"measurement": "relative viability", "setting": "NCI-H1395; first compound 0.5 µM", "value": 1.03}, {"measurement": "relative viability", "setting": "EMC-BAC-2; first compound 0.005 µM", "value": 1.03}, {"measurement": "relative viability", "setting": "EMC-BAC-2; first compound 0.01581 µM", "value": 0.952}, {"measurement": "relative viability", "setting": "EMC-BAC-2; first compound 0.05 µM", "value": 1.03}, {"measurement": "relative viability", "setting": "EMC-BAC-2; first compound 0.1581 µM", "value": 0.952}, {"measurement": "relative viability", "setting": "EMC-BAC-2; first compound 0.5 µM", "value": 1.07}, {"measurement": "relative viability", "setting": "COR-L 105; first compound 0.005 µM", "value": 1.06}, {"measurement": "relative viability", "setting": "COR-L 105; first compound 0.01581 µM", "value": 1.06}, {"measurement": "relative viability", "setting": "COR-L 105; first compound 0.05 µM", "value": 1.13}, {"measurement": "relative viability", "setting": "COR-L 105; first compound 0.1581 µM", "value": 1.23}, {"measurement": "relative viability", "setting": "COR-L 105; first compound 0.5 µM", "value": 1.11}, {"measurement": "relative viability", "setting": "NCI-H1915; first compound 0.005 µM", "value": 1.08}, {"measurement": "relative viability", "setting": "NCI-H1915; first compound 0.01581 µM", "value": 1.07}, {"measurement": "relative viability", "setting": "NCI-H1915; first compound 0.05 µM", "value": 1.1}, {"measurement": "relative viability", "setting": "NCI-H1915; first compound 0.1581 µM", "value": 1.13}, {"measurement": "relative viability", "setting": "NCI-H1915; first compound 0.5 µM", "value": 1.09}, {"measurement": "relative viability", "setting": "HARA; first compound 0.005 µM", "value": 0.859}, {"measurement": "relative viability", "setting": "HARA; first compound 0.01581 µM", "value": 0.855}, {"measurement": "relative viability", "setting": "HARA; first compound 0.05 µM", "value": 0.928}, {"measurement": "relative viability", "setting": "HARA; first compound 0.1581 µM", "value": 0.952}, {"measurement": "relative viability", "setting": "HARA; first compound 0.5 µM", "value": 0.905}, {"measurement": "relative viability", "setting": "NCI-H2228; first compound 0.005 µM", "value": 0.887}, {"measurement": "relative viability", "setting": "NCI-H2228; first compound 0.01581 µM", "value": 0.985}, {"measurement": "relative viability", "setting": "NCI-H2228; first compound 0.05 µM", "value": 1.13}, {"measurement": "relative viability", "setting": "NCI-H2228; first compound 0.1581 µM", "value": 0.82}, {"measurement": "relative viability", "setting": "NCI-H2228; first compound 0.5 µM", "value": 0.928}, {"measurement": "relative viability", "setting": "NCI-H2009; first compound 0.005 µM", "value": 1.2}, {"measurement": "relative viability", "setting": "NCI-H2009; first compound 0.01581 µM", "value": 1.16}, {"measurement": "relative viability", "setting": "NCI-H2009; first compound 0.05 µM", "value": 1.19}, {"measurement": "relative viability", "setting": "NCI-H2009; first compound 0.1581 µM", "value": 1.19}, {"measurement": "relative viability", "setting": "NCI-H2009; first compound 0.5 µM", "value": 1.13}, {"measurement": "relative viability", "setting": "NCI-H1755; first compound 0.005 µM", "value": 0.916}, {"measurement": "relative viability", "setting": "NCI-H1755; first compound 0.01581 µM", "value": 0.865}, {"measurement": "relative viability", "setting": "NCI-H1755; first compound 0.05 µM", "value": 0.945}, {"measurement": "relative viability", "setting": "NCI-H1755; first compound 0.1581 µM", "value": 0.988}, {"measurement": "relative viability", "setting": "NCI-H1755; first compound 0.5 µM", "value": 0.881}, {"measurement": "relative viability", "setting": "A-427; first compound 0.005 µM", "value": 1.03}, {"measurement": "relative viability", "setting": "A-427; first compound 0.01581 µM", "value": 1.11}, {"measurement": "relative viability", "setting": "A-427; first compound 0.05 µM", "value": 1.05}, {"measurement": "relative viability", "setting": "A-427; first compound 0.1581 µM", "value": 1.06}, {"measurement": "relative viability", "setting": "A-427; first compound 0.5 µM", "value": 1.02}]}
